PubChem BioAssay (NCI)
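Interpolation was linear, between the two tested concentrations surrounding the appropriate level; five concentrations were tested over 48 hours in 96-well plates. GI50 marks 50% less growth. At the TGI there is no net growth.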

Experiments:
Assay in all cases: growth of human tumour cells (NCI), 48 h
SK-MEL-28 melanoma = test system: SK-MEL-28 melanoma
HCT-15 colon = test system: HCT-15 colon
OVCAR-4 ovarian = test system: OVCAR-4 ovarian
UACC-62 melanoma = test system: UACC-62 melanoma
786-0 renal = test system: 786-0 renal
SN12C renal = test system: SN12C renal
LOX IMVI melanoma = test system: LOX IMVI melanoma
EKVX NSCLC = test system: EKVX NSCLC
UO-31 renal = test system: UO-31 renal
SNB-75 CNS = test system: SNB-75 CNS

| Structure (SMILES) | GI50 (SK-MEL-28 melanoma) | GI50 (HCT-15 colon) | GI50 (OVCAR-4 ovarian) | GI50 (UACC-62 melanoma) | GI50 (786-0 renal) | GI50 (SN12C renal) | GI50 (LOX IMVI melanoma) | GI50 (EKVX NSCLC) | TGI (EKVX NSCLC) | GI50 (UO-31 renal) | GI50 (SNB-75 CNS) | TGI (SK-MEL-28 melanoma) | TGI (HCT-15 colon) | TGI (OVCAR-4 ovarian) | TGI (UACC-62 melanoma) | TGI (786-0 renal) | TGI (SN12C renal) | TGI (LOX IMVI melanoma) | TGI (UO-31 renal) | TGI (SNB-75 CNS) |
| --- | --- | --- | --- | --- | --- | --- | --- | --- | --- | --- | --- | --- | --- | --- | --- | --- | --- | --- | --- | --- |
| C=CCN1CC2CON(C(=O)C(OC)(c3ccccc3)C(F)(F)F)C2C1C(C)C (stereo unspecified) | 52.9 µg/mL | 35.6 µg/mL | 67.1 µg/mL | 45.1 µg/mL | 26.7 µg/mL | 41.9 µg/mL | 26.6 µg/mL | 33.6 µg/mL | 99.1 µg/mL | 26.3 µg/mL | 38.4 µg/mL | – | – | – | – | – | – | – | – | – |
| COc1ccc(/C=C(/c2ccccc2)[N+](=O)[O-])cc1 | 1.57 µM | 446 nM | 1.69 µM | 1500 nM | 1580 nM | 1.36 µM | 1470 nM | 1.73 µM | 3.52 µM | 1.13 µM | 1.16 µM | 3.19 µM | 1.86 µM | 3.15 µM | 3.17 µM | 2.96 µM | 2.9 µM | 2.89 µM | 2.35 µM | 2.44 µM |
| CC1C(=O)OC2CC[N+]3([O-])CC=C(COC(=O)C(C)(O)C1(C)O)C23 (stereo unspecified) | – | – | – | – | – | – | – | – | > 100 µM | – | – | > 100 µM | > 100 µM | > 100 µM | > 100 µM | > 100 µM | > 100 µM | > 100 µM | – | > 100 µM |
| COc1ccc2c3c(Nc4ccc(/C(C)=N/O)cc4)[nH]c4ccccc4c-3c(N=O)c2c1 | 27 µM | 1810 nM | 28.4 µM | 7910 nM | 13400 nM | 7.06 µM | – | 3.74 µM | 20.4 µM | 18.5 µM | 44.9 µM | 50.6 µM | 4.56 µM | 68.2 µM | 23.7 µM | 28.2 µM | 23 µM | – | 35.5 µM | 75.3 µM |
| C=CCn1c2c(sc1=S)C(S)N=CN2 (stereo unspecified) | – | – | – | – | – | – | – | – | > 100 µM | – | – | > 100 µM | > 100 µM | > 100 µM | > 100 µM | > 100 µM | > 100 µM | > 100 µM | > 100 µM | > 100 µM |
| N#CC(C(=O)CCC(=O)Nc1cccc(C(F)(F)F)c1)c1ccc(Cl)cc1 (stereo unspecified) | – | – | – | – | – | – | – | – | > 100 µM | – | – | – | > 100 µM | > 100 µM | > 100 µM | > 100 µM | > 100 µM | > 100 µM | > 100 µM | – |
| CC(C)(C)OC(=O)N1N=NC2C1C1CC(OCc3ccccc3)(OCc3ccccc3)C2O1 (stereo unspecified) | – | – | – | – | – | – | – | – | – | – | – | 91.3 µM | > 100 µM | > 100 µM | > 100 µM | > 100 µM | > 100 µM | 33.7 µM | > 100 µM | > 100 µM |
| CCOC(=O)Cn1c(=O)n(C)c(=O)c2c1ncn2Cc1ccccc1 | – | – | – | – | – | – | – | – | > 100 µM | – | – | > 100 µM | > 100 µM | – | > 100 µM | > 100 µM | > 100 µM | – | > 100 µM | > 100 µM |
| Cc1ccc(S(=O)(=O)NC(=O)NC2=NC(C)(C)N(c3ccc(Cl)c(Cl)c3)C(N)=N2)cc1 | – | – | – | – | – | – | – | – | > 100 µM | – | – | > 100 µM | > 100 µM | > 100 µM | > 100 µM | > 100 µM | > 100 µM | – | > 100 µM | > 100 µM |
| CCN(CC)c1cc2oc3cc(N)cc(=N)c-3nc2cc1C | 5.7 µM | 3140 nM | – | 2060 nM | 11200 nM | 1.94 µM | – | 4.02 µM | 54.6 µM | 3.38 µM | 2.84 µM | 27 µM | > 100 µM | – | 5.94 µM | 70.1 µM | 6.13 µM | – | 49 µM | 13.4 µM |
| COc1cc(C2C(C(=O)Nc3cc(F)c(F)cc3F)=C(C)NC(C)=C2C(=O)Nc2cc(F)c(F)cc2F)ccc1O | – | – | – | – | – | – | – | – | 73.9 µM | – | – | > 100 µM | – | > 100 µM | – | > 100 µM | 84.5 µM | 32.9 µM | 35.5 µM | 25.8 µM |
| Oc1ccc(Br)cc1C=Nc1ccc(N=Cc2cc(Br)ccc2O)cc1 | – | – | – | – | – | – | – | – | > 100 µM | – | – | – | > 100 µM | > 100 µM | – | > 100 µM | > 100 µM | > 100 µM | > 100 µM | > 100 µM |
| Cc1cccc(C)c1NC(=O)C(=O)CC(=O)c1cccc([N+](=O)[O-])c1 | – | – | – | – | – | – | – | – | > 100 µM | – | – | > 100 µM | > 100 µM | > 100 µM | > 100 µM | > 100 µM | > 100 µM | – | > 100 µM | > 100 µM |
| Cc1cc(C(C)(C)C)cc(Cc2cc(C(C)(C)C)cc(Cc3cc(C(C)(C)C)cc(C)c3O)c2O)c1O | – | – | – | – | – | – | – | – | 22.9 µM | – | – | – | 24.3 µM | 20.2 µM | 18.9 µM | 18.6 µM | 33.6 µM | 21 µM | 25.9 µM | 15.5 µM |
| CCCCc1c2c(nc3c1CCC/C3=C\c1ccccc1)/C(=C/c1ccccc1)CCC2 | – | – | – | – | – | – | – | – | > 100 µM | – | – | > 100 µM | > 100 µM | – | > 100 µM | > 100 µM | > 100 µM | > 100 µM | > 100 µM | – |
| CC(=O)OC1C2CCC1C1C2C2(Cl)C(Cl)=C(Cl)C1(Cl)C2(Cl)Cl (stereo unspecified) | – | – | – | – | – | – | – | – | 24.1 µM | – | – | 34.3 µM | – | 59.8 µM | 27 µM | 27.1 µM | 28.4 µM | 29.1 µM | 25.2 µM | 29.8 µM |
| Nc1ccc2nc3n(c2c1)C(=O)c1ccccc1-3 | – | – | – | – | – | – | – | – | > 100 µM | – | – | > 100 µM | > 100 µM | > 100 µM | > 100 µM | > 100 µM | > 100 µM | – | > 100 µM | > 100 µM |
| O=S1(=O)OCCOS(=O)(=O)C1Cl | – | – | – | – | – | – | – | – | > 100 µM | – | – | > 100 µM | – | > 100 µM | > 100 µM | > 100 µM | > 100 µM | – | > 100 µM | > 100 µM |
| Clc1cc(Cl)cc(Nc2ccc3cc(OCCCN4CCOCC4)ccc3n2)c1 | – | 1470 nM | 3.44 µM | – | 1580 nM | 3.46 µM | 1620 nM | 3.39 µM | > 100 µM | – | – | – | 4.15 µM | > 100 µM | – | 3.11 µM | > 100 µM | 3.05 µM | – | – |
| COC(=O)CCC1=C(CC(=O)OC)C(C)=N/C1=C\c1[nH]c(-c2ccc[nH]2)cc1OC | 12.3 µM | 2040 nM | – | 3090 nM | 2730 nM | 11.1 µM | 788 nM | 5.61 µM | 25.3 µM | 3.44 µM | 4.9 µM | 25 µM | 15.2 µM | – | 11.5 µM | 10.2 µM | 24.9 µM | 3.11 µM | 14.7 µM | 19.1 µM |
